In ChEMBL document CHEMBL1777745, “Non-oxime pyrazole based inhibitors of B-Raf kinase” (Bioorg Med Chem Lett, 2011):
pIC50: −log10 of the molar value.

Tests used:
[1] = target: T1, Serine/threonine-protein kinase B-raf (Homo sapiens, UniProt P15056); assay: Inhibition of B-Raf
[2] = Apparent permeability from apical to basolateral side in human Caco2 cells; assay type: ADME, cell-based; conditions: caco-2
Caco-2 = assay: Efflux ratio of apparent permeability from […] in human Caco2 cells; assay type: ADME, cell-based
[3] = target: T1, Serine/threonine-protein kinase B-raf; assay: Inhibition of B-Raf-mediated ERK phosphorylation in cell-based assay
[4] = Clearance in CD-1 mouse at 2.5 mg/kg, iv; assay type: ADME, organism-based; parameters: dose 2.5 mg/kg, route intravenous; conditions: in vivo
[5] = AUC in CD-1 mouse at 2.5 mg/kg, iv; assay type: ADME, organism-based; parameters: dose 2.5 mg/kg, route intravenous; conditions: plasma
[6] = AUC in CD-1 mouse at 50 mg/kg, po; assay type: ADME, organism-based; parameters: dose 50 mg/kg, route oral; conditions: plasma
[7] = Volume of distribution at steady state in CD-1 mouse at 2.5 mg/kg, iv; assay type: ADME, organism-based; parameters: dose 2.5 mg/kg, route intravenous; conditions: in vivo, read-out: Vdss
[8] = AUC in CD-1 mouse at 100 mg/kg, po; assay type: ADME, organism-based; parameters: dose 100 mg/kg, route oral; conditions: plasma
[9] = AUC in CD-1 mouse at 25 mg/kg, po; assay type: ADME, organism-based; parameters: dose 25 mg/kg, route oral; conditions: plasma

T1 sequence (P15056 whole entry): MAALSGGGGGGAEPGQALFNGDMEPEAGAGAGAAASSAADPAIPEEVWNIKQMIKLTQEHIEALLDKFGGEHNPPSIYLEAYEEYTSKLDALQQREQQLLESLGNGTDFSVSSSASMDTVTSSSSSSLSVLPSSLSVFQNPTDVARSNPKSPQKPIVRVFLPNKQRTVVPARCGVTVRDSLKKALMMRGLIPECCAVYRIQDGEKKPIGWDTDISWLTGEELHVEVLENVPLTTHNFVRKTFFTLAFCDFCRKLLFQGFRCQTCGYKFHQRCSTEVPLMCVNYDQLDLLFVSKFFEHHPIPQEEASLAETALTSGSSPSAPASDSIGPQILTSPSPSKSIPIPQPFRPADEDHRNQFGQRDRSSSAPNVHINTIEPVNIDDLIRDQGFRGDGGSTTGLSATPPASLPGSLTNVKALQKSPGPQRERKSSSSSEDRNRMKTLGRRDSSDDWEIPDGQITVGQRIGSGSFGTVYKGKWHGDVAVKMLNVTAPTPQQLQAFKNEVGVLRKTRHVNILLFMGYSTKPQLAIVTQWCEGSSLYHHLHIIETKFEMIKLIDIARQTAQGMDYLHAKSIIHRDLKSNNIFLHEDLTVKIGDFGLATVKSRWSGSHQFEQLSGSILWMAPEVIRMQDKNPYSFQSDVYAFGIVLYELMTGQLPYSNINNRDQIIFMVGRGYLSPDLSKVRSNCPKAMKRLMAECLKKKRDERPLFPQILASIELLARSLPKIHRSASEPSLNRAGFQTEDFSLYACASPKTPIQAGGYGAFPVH

Row | SMILES | pIC50 [1] | pIC50 [3] | also measured
1 | CCc1c[nH]nc1-c1ccc(-c2cn(C)nc2-c2ccncc2)cc1 | < 6.00 | – | –
2 | Cn1cc(-c2ccc3c(c2)CCc2n[nH]cc2-3)c(-c2ccncc2)n1 | < 6.00 | – | –
3 | Cn1cc(-c2ccc(-c3cc[nH]c3)cc2)c(-c2ccncc2)n1 | 6.10 | – | –
4 | Cn1cc(-c2ccc3c(c2)CNC3=O)c(-c2ccncc2)n1 | 7.03 | – | –
5 | CNC(=O)c1ccc(-c2cn(C)nc2-c2ccncc2)cc1 | 6.19 | – | –
6 | Cn1cc(-c2ccc(S(N)(=O)=O)cc2)c(-c2ccncc2)n1 | < 6.00 | – | –
7 | Cn1cc(-c2cccc3[nH]ncc23)c(-c2ccncc2)n1 | 6.33 | – | –
8 | Cn1cc(-c2ccc3[nH]ncc3c2)c(-c2ccncc2)n1 | < 6.00 | – | –
9 | Cn1cc(-c2ccc3[nH]ccc3c2)c(-c2ccncc2)n1 | 6.06 | – | –
10 | Cn1cc(-c2ccc3cc[nH]c3c2)c(-c2ccncc2)n1 | 6.48 | – | –
11 | Cn1cc(-c2ccc3cc(O)ccc3c2)c(-c2ccncc2)n1 | 7.11 | – | –
12 | Cn1cc(N)c(-c2ccncc2)n1 | < 6.00 | – | –
13 | Cn1cc(O)c(-c2ccncc2)n1 | < 6.00 | – | –
14 | c1cc(-c2nn(C3CCNCC3)cc2-c2ccc3c(c2)Cc2c[nH]nc2-3)ccn1 | – | 6.64 | Papp A→B [2]: 1.88 ×10⁻⁶ cm/s; Ratio (Caco-2): 6.17
15 | c1cc(-c2nn(C3CC4CCC(C3)N4)cc2-c2ccc3c(c2)Cc2c[nH]nc2-3)ccn1 (configuration not stated) | 9.24 | 6.58 | –
16 | Cn1cc(-c2ccc3cn[nH]c3c2)c(-c2ccncc2)n1 | 6.86 | – | –

Now from value to compound, other results behind:

Row | pIC50 [1] | pIC50 [3] | SMILES | also measured
17 | 7.64 | – | Cn1cc(-c2ccc3c(c2)CCc2c[nH]nc2-3)c(-c2ccncc2)n1 | –
18 | 7.96 | – | Cn1cc(-c2ccc3c(c2)Cc2n[nH]nc2-3)c(-c2ccncc2)n1 | –
19 | 7.26 | – | Cn1cc(-c2ccc(-c3c[nH]nn3)cc2)c(-c2ccncc2)n1 | –
20 | 8.85 | – | Cn1cc(-c2ccc3c(O)cccc3c2)c(-c2ccncc2)n1 | –
21 | 8.10 | 6.05 | CN1CCC(n2cc(-c3ccc4c(c3)Cc3c[nH]nc3-4)c(-c3ccncc3)n2)CC1 | –
22 | 8.43 | 5.78 | c1cc(-c2nn(C3CCCNC3)cc2-c2ccc3c(c2)Cc2c[nH]nc2-3)ccn1 (configuration not stated) | –
23 | 8.49 | 5.81 | c1cc(-c2nn(C3CCCNCC3)cc2-c2ccc3c(c2)Cc2c[nH]nc2-3)ccn1 (configuration not stated) | –
24 | 9.18 | 6.40 | N[C@H]1CC[C@H](n2cc(-c3ccc4c(c3)Cc3c[nH]nc3-4)c(-c3ccncc3)n2)CC1 | –
25 | 7.64 | 5.82 | N[C@H]1CC[C@@H](n2cc(-c3ccc4c(c3)Cc3c[nH]nc3-4)c(-c3ccncc3)n2)CC1 | –
26 | 7.14 | 5.09 | CNCCn1cc(-c2ccc3c(c2)Cc2c[nH]nc2-3)c(-c2ccncc2)n1 | –
27 | 8.70 | 6.22 | O[C@@H]1CCC[C@H](n2cc(-c3ccc4c(c3)Cc3c[nH]nc3-4)c(-c3ccncc3)n2)C1 | –
28 | 8.34 | 5.36 | c1ccc(-n2cc(-c3ccc4c(c3)Cc3c[nH]nc3-4)c(-c3ccncc3)n2)cc1 | –
29 | 8.31 | 5.31 | O[C@@H]1CNCC[C@H]1n1cc(-c2ccc3c(c2)Cc2c[nH]nc2-3)c(-c2ccncc2)n1 | –
30 | 8.30 | 6.21 | c1cc(-c2nn(C3CC4COCC(C3)N4)cc2-c2ccc3c(c2)Cc2c[nH]nc2-3)ccn1 (configuration not stated) | –
31 | 8.42 | 6.39 | F[C@H]1CNCC[C@H]1n1cc(-c2ccc3c(c2)Cc2c[nH]nc2-3)c(-c2ccncc2)n1 | –
32 | 8.49 | 5.67 | F[C@H]1CCNC[C@H]1n1cc(-c2ccc3c(c2)Cc2c[nH]nc2-3)c(-c2ccncc2)n1 | –
33 | 8.90 | 6.17 | F[C@H]1CNCC[C@@H]1n1cc(-c2ccc3c(c2)Cc2c[nH]nc2-3)c(-c2ccncc2)n1 | –
34 | 8.15 | – | Cc1c[nH]nc1-c1ccc(-c2cn(C)nc2-c2ccncc2)cc1 | –
35 | 8.85 | 6.15 | F[C@@H]1CNCC[C@H]1n1cc(-c2ccc3c(c2)Cc2c[nH]nc2-3)c(-c2ccncc2)n1 (stereo in doubt; 38) | Papp A→B [2]: 11.4 ×10⁻⁶ cm/s; clearance [4]: 91.1 mL/min/kg; Ratio (Caco-2): 1.55; AUC [5]: 406 ng·h/mL; AUC [6]: 13400 ng·h/mL; Vd [7]: 8.74 L/kg; AUC [8]: 38800 ng·h/mL; AUC [9]: 5160 ng·h/mL
36 | 8.80 | 6.27 | F[C@@H]1CNCC[C@H]1n1cc(-c2ccc3c(c2)Cc2c[nH]nc2-3)c(-c2ccncc2)n1 (stereo in doubt; 41) | –
